For two compounds, IC50 results are on record in patent US20180318275A1, “COMBINATION THERAPY USING PI3K INHIBITOR AND MDM2 INHIBITOR” (Novartis AG, priority 2015, published 2018).

Molecules are shown by their SMILES.

What all share (assay): Cell proliferation (cell count by microscopy), Example 2
Holding throughout (format): cell-based

The test system of one test is GP2d. Particulars: single agent, 72 h, cell count relative to DMSO, unit from text b187 (micromolar, top dose 10 μM). Here is the method:
(§1) COMPOUNDS A and B were dissolved in 100% DMSO (Sigma, Catalog number D2650) at concentrations of 20 mM and stored at −20° C. until use. Compounds were arrayed in drug master plates (Greiner, Catalog number 788876) and serially diluted 3-fold (7 steps) at 2000× concentration.
(§2) To test the effect of the combination of COMPOUND A and COMPOUND B on cell proliferation cells were plated in black 384-well microplates with clear bottom (Matrix/Thermo Scientific, Catalog number 4332) in 50 μL media per well at cell densities between 500 and 1250 cells/well (Table 1) and allowed to incubate at 37 degrees, 5% CO2 for 24 h. After 24 h one 384-well plate per cell line was prepared for cell counting by microscopy (see below) without receiving treatment (=‘baseline’). The other cell plates were treated by transferring 25 nL of the 2000× compound from drug master plates using an ATS acoustic liquid dispenser (ECD Biosystems) and resulting in a final 1× concentration. COMPOUND A was used over a final concentration range of 13 nM-10 μM, and COMPOUND B was used over a final concentration range of 13 nM-10 μM (7 1:3 dilution steps). For the combination of COMPOUND A with COMPOUND B the single agents were combined at a fixed ratio of 1:1 at each dilution resulting in 7 combination treatments. […] After compound addition 50 nL of 2 mM CellEvent Caspase-3/7 Green Detection Reagent (ThermoFisher, Catalog number C10423) were added to one of the three replicates using the HP D300 Digital Dispenser (Tecan). Caspase 3/7 induction was measured as a proxy for apoptosis induced by the treatments. Cells were treated for 72 h to 96 h depending on their doubling time (Table 1), and Caspase 3/7 activation was measured every 24 h by microscopy using an InCell Analyzer 2000 (GE Healthcare) equipped with a 4× objective and FITC excitation/emission filters. At the end of the treatment cells were prepared for cell counting by microscopy. Cells were fixed and permeabilised for 45 minutes in 4% PFA (Electron Microscopy Sciences, Catalog number 15714), 0.12% TX-100 (Electron Microscopy Sciences, Catalog number 22140) in PBS (Boston Bioproducts, Catalog number BM-220). After washing cells three times with PBS their DNA was stained for 30 minutes with Hoechst 33342 (ThermoFisher, Catalog number H3570) at a final concentration of 4 μg/mL. Cells were washed three times with PBS and then plates were heat-sealed using a PlateLoc (Agilent Technologies) with aluminum seals (Agilent Technologies, Catalog number 06644-001) and stored at 4° C. until imaging. All cells per well/treatment were captured in a single image by fluorescence microscopy using an InCell Analyzer 2000 (GE Healthcare) equipped with a 4× objective and DAPI excitation/emission filters.
(§3) Images were analyzed after adapting previously described methods (Horn, Sandmann et al. 2011, Nat. Methods 8(4): 341-346) and using the Bioconductor package EBImage in R (Pau, Fuchs et al. 2010, Bioinformatics 26(7):979-981). Objects in both channels, DAPI (for Hoechst/DNA) and FITC (for Caspase 3/7), were segmented separately by adaptive thresholding and counted. A threshold for Caspase 3/7 positive objects was defined manually per cell line after comparing negative controls (DMSO) and positive controls (Staurosporine). By analyzing 17 additional object/nuclei features in the DNA channel (shape and intensity features) debris/fragmented nuclei were identified. To this end per cell line the distributions of the additional features between positive controls (Staurosporine) and negative controls (DMSO) were compared manually. Features that could differentiate between the conditions (e.g. a shift in the distribution of a feature measurement comparing DMSO with Staurosporine) where used to define the ‘debris’ population versus the population of ‘viable’ nuclei. The debris counts were subtracted from raw nuclei counts. The resulting nuclei number was used as measure of cell proliferation (‘cell count’). […]

For another test, the system named is HCT-116. Particulars: Homo sapiens; HCT-116, single agent, 72 h, cell count relative to DMSO. Here is the method:
as §1, §2, §3

The next test concerns LS-180. Particulars: Homo sapiens, LS180; LS-160 (so in the source), single agent, 72 h, cell count relative to DMSO. On the procedure: as §1, §2, §3
The next test concerns LoVo. Particulars: Homo sapiens, single agent, 96 h, cell count relative to DMSO. Here is the method: as §1, §2, §3
In the next test the test system is RKO. Particulars: Homo sapiens, single agent, 72 h, cell count relative to DMSO. On the procedure:
as §1, §2, §3

By IC50 is commonly meant the midpoint of a concentration-inhibition curve. Consider `Cc1nc(NC(=O)N2CCC[C@H]2C(N)=O)sc1-c1ccnc(C(C)(C)C(F)(F)F)c1` [COMPOUND A, (S)-Pyrrolidine-1,2-dicarboxylic acid 2-amide 1-({4-methyl-5-[2-(2,2,2-trifluoro-1,1-dimethyl-ethyl)-pyridin-4-yl]-thiazol-2-yl}-amide)], for which the IC50 was 500 nM in the test on GP2d; 9800 nM in the test with HCT-116; more than 10000 nM in the test with LS-180; more than 10000 nM in the test with LoVo; 3900 nM in the test with RKO.
In the case of `COc1cc2c(cc1OC(C)C)[C@H](c1ccc(Cl)cc1)N(c1ccc(N(C)C[C@H]3CC[C@H](N4CCN(C)C(=O)C4)CC3)cc1)C(=O)C2` [COMPOUND B, (S)-1-(4-Chloro-phenyl)-7-isopropoxy-6-methoxy-2-(4-{methyl-[4-(4-methyl-3-oxo-piperazin-1-yl)-trans-cyclohexylmethyl]-amino}-phenyl)-1,4-dihydro-2H-isoquinolin-3-one], the IC50 stood at 800 nM with GP2d; 100 nM in the test on HCT-116; 700 nM in the test with LS-180; 600 nM with LoVo; 1200 nM in the test on RKO.
